Assay results: patent US20070293543A1, “THRESHOLD BLOOD OMEPRAZOLE CONCENTRATION IS 50 NG/ML FOR THE MAINTENANCE OF INTRAGASTRIC pH OF AT LEAST 4.0 AFTER ORAL DOSING WITH CMA-OMEPRAZOLE, AGN 201904-Z” (priority 2006, published 2007)

Tested on: intragastric pH
Assay: 24-hr intragastric pH monitoring (pharmacodynamics)
Type: in vivo, healthy male subjects
Conditions: oral once-daily dosing; for % time intragastric pH ≧4.0: 24-hr monitoring, p<0.0001 vs esomeprazole, dose level and day not stated
Procedure: Methods: Forty healthy male subjects received 240, 480, and 640 mg AGN 201904-Z or 40 mg esomeprazole orally once-daily for 5 days in a open-label, randomized, 4-way cross-over study. These doses were estimated to deliver molar equivalent omeprazole doses of 53%, 107%, and 143% of the esomeprazole dose, respectively. Pharmacokinetic (PK) blood samples were collected at 8 timepoints following the 1st and 5th dose of each treatment. Pharmacodynamics (PD) were evaluated via 24-hr intragastric ph monitoring before treatment and after the 1st and 5th doses of each treatment. Empirical PK/PD models were constructed for AGN 201904-Z data by regressing the % time that intragastric pH ≧4.0 during a 24-hr dosing period against the duration of time that blood omeprazole concentrations were greater than 8 different concentrations over the same 24-hr period. The possible threshold concentrations evaluated ranged from 10 to 400 ng/mL. The concentration that provided the best-fit was designated the threshold concentration. The best-fit concentration and model was chosen based on the WSSR, R^2, visual inspection, and AIC value. Results: Among the possible omeprazole threshold concentrations evaluated, 50 ng/mL was the best-fit concentration value in all of the models evaluated.

Row | Compound | % time intragastric pH ≧4.0 | maintaining 24-hour intragastric pH ≧4.0, comparison with esomeprazole (healthy male subjects)
1 | COc1ccc2nc([S@@+]([O-])Cc3ncc(C)c(OC)c3C)[nH]c2c1 [esomeprazole, reference compound] | 68.4 % of 24-hr | 
2 | COc1ccc2c(c1)nc([S+]([O-])Cc1ncc(C)c(OC)c1C)n2S(=O)(=O)c1ccc(OCC(=O)[O-])cc1.[Na+] (stereo not drawn) [AGN 201904-Z, sodium {4-[5-Methoxy-2-(4-methoxy-3,5-dimethyl-pyridin-2-ylmethanesulfinyl)-benzoimidazole-1-sulfonyl]-phenoxy}-acetate] | 80.1 % of 24-hr | more effective than esomeprazole
